IC50 data for 14 molecules are collected here from patent EP4772509A1, “KINESIN KIF18A INHIBITOR, AND APPLICATION THEREOF” (Shanghai Apeiron Therapeutics Company Limited, priority 2023, dated 2025).

The structures appear in SMILES notation. Like-named read-outs stand apart in the source and are kept apart here.

Experiment [1] has as its target T1, Human KIF18A (amino acid sequence 1-417) (Homo sapiens, UniProt Q8NI77).
T1 construct: purchased Viva Biotech (Shanghai) Ltd
T1 sequence (Q8NI77 1-417): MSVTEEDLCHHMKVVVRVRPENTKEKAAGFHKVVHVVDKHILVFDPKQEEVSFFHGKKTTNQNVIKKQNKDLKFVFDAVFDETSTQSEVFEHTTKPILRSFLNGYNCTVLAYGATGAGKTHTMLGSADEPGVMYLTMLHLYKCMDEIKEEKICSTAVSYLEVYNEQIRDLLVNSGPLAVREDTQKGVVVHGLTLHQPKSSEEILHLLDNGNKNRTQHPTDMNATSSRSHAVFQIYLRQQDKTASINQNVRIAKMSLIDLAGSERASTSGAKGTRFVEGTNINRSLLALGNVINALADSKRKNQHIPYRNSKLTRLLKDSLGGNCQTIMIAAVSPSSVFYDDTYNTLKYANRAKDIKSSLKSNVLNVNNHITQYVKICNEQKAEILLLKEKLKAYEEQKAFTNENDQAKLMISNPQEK
As to the kind of experiment: Enzymatic activity test (ADP-Glo, microtubule-stimulated ATPase). The class given is biochemical. To be noted: 60 µg/mL microtubules, 25 µM ATP, 2.5 nM KIF18A protein, 120 min at ambient temperature, chemiluminescence. The procedure, abridged: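 KIF18A (1-417) at 2.5 nM with 60 µg/mL microtubules and 25 µM ATP, compounds at 0-10 µM final, reacted 120 min at ambient temperature. ADP formed was read by ADP-Glo chemiluminescence after two 30 min room-temperature steps.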
(In general: ADP-Glo turns the ADP formed in a reaction into a luminescent signal.)

In experiment [2] the test system is OVCAR3 cells. Nature of the experiment: Cell proliferation activity test (CyQUANT Direct). The class given is cell-based. The conditions noted are these: 3 days, 0.2% DMSO, CyQUANT fluorescence. In short, it runs like this: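 OVCAR3 cells in RPMI-1640 with 10% FBS were seeded, then treated overnight later with compound at final 0–10 µM (0.2% DMSO) for 3 days at 37°C, 5% CO2. Proliferation was read as CyQUANT Direct fluorescence after 60 min at 37°C.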

In experiment [3] the test system is HT29 cells. As to the kind of experiment: CyQuant cell proliferation activity test. The class given is cell-based. To be noted: HT29 at 2000 cells per well, 3 days, 0.2% DMSO, XLFIT. The procedure, abridged:
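Cells seeded at 2000/well in RPMI-1640 with 10% FBS, left overnight, then exposed 3 days at 37 °C, 5% CO2 to a 9-point 3-fold series from 3000 nM (0.2% DMSO). CyQuant signal read after 1 h; IC50 from curve fit.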

On to `CCS(=O)(=O)Nc1cc2c(c3c1C(=O)CC3)C(=O)Nc1cc(C)nc(n1)N1CCC(F)(F)C(C=CCC3CCN2CC3)C1` (stereo not drawn) [Example 18, N-(1^4,1^4-difluoro-2^6-methyl-5^1,4-dioxo-5^2,5^3-dihydro-5^1H-3-aza-2(2,4)-pyrimidin-1(1,3),6(1,4)-dipiperidin-5(4,5)-indenoheterocyclonon-8-en-5^7-yl)-ethanesulfonamide], for which the IC50 in experiment [1] (read-out: KIF18A IC50) turned out to be 67 nM; in experiment [2], 0.038 µM; in experiment [3] (read-out: HT-29 IC50), 0.041 µM.
Consider `Cc1cc2nc(n1)N1CCC(F)(F)C(C=CCC3CCN(CC3)c3cc(NS(C)(=O)=O)c4c(c3C(=O)N2)CCC4=O)C1` (stereo not drawn) [Example 19, N-(1^4,1^4-difluoro-2^6-methyl-5^1,4-dioxo-5^2,5^3-dihydro-5^1H-3-aza-2(2,4)-pyrimidin-1(1,3),6(1,4)-dipiperidin-5(4,5)-indenoheterocyclonon-8-en-5^7-yl)-methanesulfonamide], for which the IC50 in experiment [1] (read-out: KIF18A IC50) is 73 nM; in experiment [2], 0.052 µM; in experiment [3] (read-out: HT-29 IC50), 0.048 µM.
Regarding `Cc1cc2nc(n1)N1CCC(F)(F)C(/C=C\Cc3ccc(cc3)-c3cc(NS(=O)(=O)CCO)ccc3C(=O)N2)C1` (stereo not drawn) [Example 42, N-(1^4,1^4-difluoro-2^6-methyl-4-oxo-3-aza-2(2,4)-pyrimidin-1(1,3)-piperidin-5(1,2),6(1,4)-diphenylheterocyclonon-8-en-5^4-yl)-2-hydroxyethane-1-sulfonamide], the IC50 came to 167 nM in experiment [1] (KIF18A IC50 nM); 0.136 µM in experiment [2] (Homo sapiens, OVCAR-3, 72 h); 0.162 µM in experiment [3] (Homo sapiens, HT-29, 72 h).
As to `Cc1cc2nc(n1)N1CCC(F)(F)C(CCCc3ccc(cc3)-c3cc(NS(=O)(=O)CCO)ccc3C(=O)N2)C1` (stereo not drawn) [Example 44, N-((1^3S,Z)-1^4,1^4-difluoro-2^6-methyl-3^1H-2(2,4)-pyrimidin-1(1,3),5(1,4)-dipiperidin-3(4,1)-triazole-4(1,2)-benzylcyclooctyl-4^4-yl)-2-hydroxyethane-1-sulfonamide], the IC50 came to 83 nM in experiment [1] (read-out: KIF18A IC50); 0.027 µM in experiment [2] (Homo sapiens, OVCAR-3, 72 h); 0.039 µM in experiment [3] (Homo sapiens, HT-29, 72 h).
Taken in the same sequence, the figures for `Cc1cc2nc(n1)N1CCC(F)(F)C(CCc3ccc(cc3)-c3cc(NS(=O)(=O)CCO)ccc3C(=O)N2)C1` (stereo not drawn) [Example 45, N-(2^4,2^4-difluoro-1^6-methyl-7-oxo-8-aza-1(2,4)-pyrimidin-2(1,3)-piperidin-5(1,4),6(1,2)-dibenzylcycloophene-6^5-yl)-2-hydroxyethane-1-sulfonamide] were 114 nM, 0.077 µM and 0.1 µM.
Taken in the same sequence, the figures for `Cc1cc2nc(n1)N1CCC(F)(F)C(CCCc3ccc(nc3)-c3cc(NS(=O)(=O)CCO)ccc3C(=O)N2)C1` (stereo not drawn) [Example 49, N-(1^4,1^4-difluoro-2^6-methyl-4-oxo-3-aza-2(2,4)-pyrimidin-6(2,5)-pyridin-1(1,3)-piperidin-5(1,2)-phenylheterocyclononane-5^4-yl)-2-hydroxyethane-1-sulfonamide] were 187 nM, 1.08 µM and 1.31 µM.
Taken in the same sequence, the figures for `Cc1cc2nc(n1)N1CCC(F)(F)C(CCCc3ccn(c(=O)c3)-c3cc(NS(=O)(=O)CCO)ccc3C(=O)N2)C1` (stereo not drawn) [Example 52, N-(1^4,1^4-difluoro-2^6-methyl-6^2,4-dioxo-6^1,6^2-dihydro-3-aza-2(2,4)-pyrimidin-6(1,4)-pyridin-1(1,3)-piperidin-5(1,2)-phenylheterocyclononane-5^4-yl)-2-hydroxyethane-1-sulfonamide] were 555 nM, > 3 µM and > 3 µM.
Turning to `COc1cc2nc(n1)N1CCC(F)(F)C(C=CCc3cccc(c3)-c3cc(NS(=O)(=O)CCO)ccc3C(=O)N2)C1` (stereo not drawn) [Example 54, N-(1^4,1^4-difluoro-2^6-methoxy-4-oxo-3-aza-2(2,4)-pyrimidin-1(1,3)-piperidin-5(1,2),6(1,3)-diphenylheterocyclonon-8-en-5^4-yl)-2-hydroxyethane-1-sulfonamide], the IC50 in experiment [1] (KIF18A IC50 nM) is 1560 nM; in experiment [2] (Homo sapiens, OVCAR-3, 72 h), 0.867 µM; in experiment [3] (Homo sapiens, HT-29, 72 h), > 3 µM.
Take `Cc1cc2nc(n1)N1CCC(F)(F)C(C=CCc3ccc(cc3)-c3cc(NS(=O)(=O)CCO)ccc3C(=O)N2)C1` (stereo not drawn) [Example 55, N-(1^4,1^4-difluoro-2^6-methyl-4-oxo-3-aza-2(2,4)-pyrimidin-1(1,3)-piperidin-5(1,2),6(1,4)-diphenylheterocyclonon-8-en-5^4-yl)-2-hydroxyethane-1-sulfonamide]: the half-maximal inhibitory concentration (IC50) in experiment [1] (read-out: KIF18A IC50) is 88 nM; in experiment [2] (Homo sapiens, OVCAR-3, 72 h), 0.03 µM; in experiment [3] (Homo sapiens, HT-29, 72 h), 0.029 µM.
Turning to `Cc1cc2nc(n1)N1CCC(F)(F)C(C=CCC3=CC=C(S3)c3cc(NS(=O)(=O)CCO)ccc3C(=O)N2)C1` (stereo not drawn) [Example 57, N-(1^4,1^4-difluoro-2^6-methyl-4-oxo-3-aza-2(2,4)-pyrimidin-1(1,3)-piperidin-6(2,5)-thiophene-5(1,2)-benzoazacyclon-8-en-5^4-yl)-2-hydroxyethane-1-sulfonamide], the half-maximal inhibitory concentration (IC50) stood at 52 nM in experiment [1] (read-out: KIF18A IC50); 0.119 µM in experiment [2] (Homo sapiens, OVCAR-3, 72 h); 0.022 µM in experiment [3] (Homo sapiens, HT-29, 72 h).
Take `Cc1cc2nc(n1)N1CCC(F)(F)C(CCCC3=CC=C(S3)c3cc(NS(=O)(=O)CCO)ccc3C(=O)N2)C1` (stereo not drawn) [Example 58, N-(1^4,1^4-difluoro-2^6-methyl-4-oxo-3-aza-2(2,4)-pyrimidin-1(1,3)-piperidin-6(2,5)-thiophene-5(1,2)-benzoazacyclononane-5^4-yl)-2-hydroxyethane-1-sulfonamide]: the IC50 in experiment [1] (read-out: KIF18A IC50) came out at 67 nM; in experiment [2] (Homo sapiens, OVCAR-3, 72 h), 0.116 µM; in experiment [3] (Homo sapiens, HT-29, 72 h), 0.042 µM.
`Cc1cc2nc(n1)N1CCC(F)(F)[C@@H](CCCC3CCN(CC3)c3cc(NS(=O)(=O)CCO)ccc3-n3cc-2nn3)C1` [Example 85, N-((1^3S,Z)-1^4,1^4-difluoro-2^6-methyl-3^1H-2(2,4)-pyrimidin-1(1,3),5(1,4)-dipiperidin-3(4,1)-triazole-4(1,2)-benzylcyclooctyl-4^4-yl)-2-hydroxyethane-1-sulfonamide]: the IC50 in experiment [1] (read-out: KIF18A IC50) amounted to 350 nM; in experiment [2] (Homo sapiens, OVCAR-3, 72 h), 0.06 µM; in experiment [3] (Homo sapiens, HT-29, 72 h) it was 0.076 µM.
In the case of `Cc1cc2nc(n1)N1CCC(F)(F)C(/C=C/CC3CCN(CC3)c3cc(NS(=O)(=O)CCO)c(C(=O)C4CC4)cc3-n3cc-2nn3)C1` (stereo not drawn) [Example 89, N-((3^4Z,7E)-4^5-(cyclopropanecarbonyl)-1^4,1^4-difluoro-2^6-methyl-3^1H-2(2,4)-pyrimidin-1(1,3),5(1,4)-dipiperidin-3(4,1) -triazole-4(1,2)-benzocyclooct-7-en-4^4-yl)-2-hydroxyethane-1-sulfonamide], the IC50 in experiment [1] (read-out: KIF18A IC50) came to 1700 nM; in experiment [2] (Homo sapiens, OVCAR-3, 72 h), 0.171 µM; in experiment [3] (Homo sapiens, HT-29, 72 h), 0.173 µM.
Consider `CON(C)C(=O)c1cc2c(cc1NS(=O)(=O)CCO)N1CCC(C/C=C/C3CN(CCC3(F)F)c3nc(C)cc(n3)-c3cn-2nn3)CC1` (stereo not drawn) [Example 90, (3^4Z,7E)-1^4,1^4-difluoro-4^4-((2-hydroxyethyl)sulfonamido)-N-methoxy-N,2^6-dimethyl-3^1H-2(2,4)-pyrimidin-1(1,3),5(1,4) -dipiperidin-3(4,1)-triazole-4(1,2)-benzocyclooct-7-en-45-carboxamide], for which the IC50 in experiment [1] (read-out: KIF18A IC50) is 274 nM; in experiment [2] (Homo sapiens, OVCAR-3, 72 h), 0.136 µM; in experiment [3] (Homo sapiens, HT-29, 72 h) it was 0.333 µM.

One may read the IC50 as the point on the concentration scale where inhibition reaches its midpoint.
